Read-outs that look alike come from different tables or passages of the source.
Assays:
sterol 14-reductase = target: T1, sterol 14-reductase (Rattus norvegicus, UniProt A0ACM8Q6X4); assay: Sterol 14-reductase assay with rat liver microsomes (substrate 4,4-dimethyl-5α-cholesta-7,14-dien-3β-ol, GLC); type: biochemical, Sprague-Dawley rats
T1 construct: to give a microsome which was used as an enzyme source of sterol 14-reductase; from tissue
T1 sequence (A0ACM8Q6X4 1-418): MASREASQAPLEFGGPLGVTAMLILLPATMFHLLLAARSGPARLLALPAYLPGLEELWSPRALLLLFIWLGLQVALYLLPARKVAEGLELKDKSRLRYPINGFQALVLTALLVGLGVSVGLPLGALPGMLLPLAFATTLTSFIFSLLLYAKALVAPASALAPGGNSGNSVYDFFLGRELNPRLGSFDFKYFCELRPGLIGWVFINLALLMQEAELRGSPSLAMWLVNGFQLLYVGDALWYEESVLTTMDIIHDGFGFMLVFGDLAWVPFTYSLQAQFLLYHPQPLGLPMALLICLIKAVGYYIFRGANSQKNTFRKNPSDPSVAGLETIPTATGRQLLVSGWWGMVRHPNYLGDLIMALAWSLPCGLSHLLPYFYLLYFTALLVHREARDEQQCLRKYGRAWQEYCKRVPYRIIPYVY
Method: First, a screening system for sterol 14-reductase was constructed in which 4,4-dimethyl-5α-cholesta-7,14-dien-3β-ol is used as a substrate and then, the effect on the activity of sterol 14-reductase was investigated in the screening system.
The animals were fasted for 12 hours before excising liver tissues and then sacrificed by decapitation at midnight. An aqueous solution containing 0.25M of sucrose was injected into the hepatic portal vein to remove all the blood within the liver, and then, the liver was excised. The liver was homogenated with two volummes of buffer solution 1 (0.1 M potassium phosphate , 1 mM reduced glutathione, 0.5 mM EDTA, 20% (v/v) glycerol, pH 7.4) by repeating pestles over 10 times and then, centrifuged with 900×g for 5 minutes to give a supernatant. The supernatant was centrifuged with 12,000×g for 20 minutes. The supernatant obtained was ultracentrifuged with 105,000×g for 90 minutes to give a microsome which was used as an enzyme source of sterol 14-reductase. Assay against sterol 14-reductase was carried out as follows: 60 nmol of 4,4-dimethyl-5α-cholesta-7,14-dien-3β-ol and the extract from Corydalis Turtschaninowii Besser dissolved into DMSO were added to an assay mixture (total volume 1.0 ml) containing 2 mg of microsomal protein, 2 mM of NADPH and 25 mg of glucose plus 20 units of glucose oxidase with preincubations under nitrogen at 37° C. for 4 min unless otherwise specified to establish anaerobic condition. Buffer A (0.1M potassium phosphate buffer, pH 7.4, including 1 mM reduced glutathione, 0.5 mM EDTA, and 20% (v/v) glycerol) used for incubation had been equilibrated with nitrogen, and nitrogen was exchanged for air in all sealed reaction flasks prior to the start of incubations. Incubation of the complete mixture was carried out anaerobically in sealed flasks for 10 min at 37° C. unless otherwise indicated. Incubations were terminated by the addition of 1 ml of ethanolic KOH followed by heating under reflux for 10 min. Sterols were extracted four times with 4 ml of petroleum ether, and the solvent was evaporated to dryness under a nitrogen stream. The resulting residue was dissolved in 200-500 μl of n-hexane for quantification by GLC at high sensitive attenuation. The activity of sterol 14-reductase was determined with the amount of the substrate wherein the double bonds of 14-carbon were reduced (for the amount reduced by 1 mg of the microsome protein for 1 minute).

[1] = system: human liver HepG2 cell line; assay: Cholesterol biosynthesis in cultured human liver cell line HepG2 ([1,2-14C]acetate); type: cell-based; conditions: compared with AY9944, comparative drug
Method: Cultured human liver HepG2 cell line was grown on RPMI (Rosewell park Memorial Institute) 1640 culture medium containing 10% […] until 60% of monolayer are formed in a 60 mm culture dish. After replacing the medium with 3 ml of a fresh culture medium containing 10%(v/v) LPDS (Fetal calf lipoprotein-deficient serum), the cells were further grown for 48 hours until 90% of cultivation degree appear. The culture medium was removed and the cell was then washed with PBS. 2 ml of culture medium containing compound no. 8 (final concentration 100 μM) and AY-9944 (final concentration 1 μM) were added thereto. Then, the medium was cultivated at 37° C. for 1 hour under the condition of 95% air/5% carbonic acid gas. AY-9944 which is an inhibitor for sterol 7-reductase was used as a control drug for assuring the present experimental procedure on the inhibition of cholesterol biosynthesis. Thereafter, 3 μCi of [1 ,2-^14 C]acetate (72 mCi/mmol) were added thereto. The cultivation was continued for 2 hours so that the isotope is introduced into the cell and used as a precursor for sterol to be synthesized. Then, the culture medium was completely removed and washed with PBS twice and the cells were collected by scratching. 10 μg of cholesterol, 10 μg of lanosterol and [^3 H]cholesterol (30,000 dpm) were added thereto, and saponification reaction was carried out at 70° C. for an hour by adding 7.5% of methanolic KOH solution. Unsaponified sterol was removed by extracting them three times with 3 ml of petroleum ether and dried with nitrogen purging. The dried samples were redissolved in 200 μl of chloroform. An aliquot of the samples was loaded onto Silicagel 60F thin layer plate and then separated using ethyl acetate/hexane 25/75 (v/v) as the developing solvent. The thin layer film was developed by exposure to Amersham Hyperfilm at -70° C. for 7 days. Cholesterol band were confirmed by comparing the band appeared in the film and that appeared in the iodine-stained thin layer. After scratching the cholesterol band, it was quantified by a liquid scintillation counter.

Syrian Golden Hamster = assay: In vivo effect on plasma lipids and glucose in Syrian Golden Hamster; conditions: for total cholesterol, LDL-cholesterol, and triglyceride levels (in words): Syrian Golden Hamster, compared with lovastatin; for Glucose, percent change in parentheses / HDL cholesterol, percent change in parentheses / LDL cholesterol, percent change in parentheses / Total cholesterol, percent change in parentheses / Trigly-ceride, percent change in parentheses: against normal diet control, 6.0 mg/kg/day; for Glucose / HDL cholesterol / LDL cholesterol / Total cholesterol / Trigly-ceride: normal diet + 6.0 mg/kg/day, oral, 14 days; for Glucose: hamster; for HDL cholesterol / LDL cholesterol / Total cholesterol / Trigly-ceride: hamster plasma
Method: In order to investigate the effect of the compound of formula (1) of the invention, the compound was orally administered into male Syrian Golden Hamsters having weights of 90~110 g and then blood was taken from each animal. Plasma lipids, i.e., total cholesterol, LDL-cholesterol, HDL-cholesterol and triglycerides were analyzed using an automatic analyzer (Automatic analyzer model Hitachi 7150).
Male Syrian Golden Hamsters weighing 90~110 g distributed from Samyuk Animal Laboratory, Seoul, Korea were bred under the following conditions: They were maintained under reverse light cycle (light cycle: from 6 P.M to 6 A.M; dark cycle: from 6 A.M. to 6 P.M.). The food and water were supplied at 10 A.M. The commercially available standard rodent chows were used. The hamsters were divided into 6 or 7 animals per group. The animals were fasted for 12 hours before administrating the drug. Then, dehydrocoridaline derivatives dissolved in a 0.25% methyl cellulose solution was administered orally for 14 days at the indicated time per a day. After fasting animals for 24 hours from the last administration, blood was extracted using a cardiac puncture and plasma was then isolated. Plasma lipids, i.e., total cholesterol, LDL-cholesterol, HDL-cholesterol and triglyceride values were analyzed using Automatic Analyzer (Hitachi 7150).

[2] = Acute oral toxicity in SD rats; type: in vivo; conditions: rat, in vivo, po, rats
Method: (§1) Meanwhile, the toxicity of the compounds of the present invention was mvestigated as follows: i.e., the compounds were suspended into propylene glycol and then orally administered into each of 5 male and female SD rats at the age of 5-weeks that were fasted for 12 hours. Under the usual breeding conditions, general symptoms, weight change and lethal case of the above rats were monitored for two weeks. At the dose over 2,000 mg/kg of the compound nos. […] Rats were safe against the dose of 700 mg/kg of compound no. 8.

SD rats = assay: Acute oral toxicity in SD rats; type: in vivo; conditions: for general symptoms, weight change and lethal case over two weeks: rat, in vivo
Method: as §1

[3] = read-out: Enzyme Activity (relative in vitro activity for sterol 14-reductase, IC50 class)

| SMILES | IC50 (sterol 14-reductase; [3]) [µM] | cholesterol biosynthesis in human HepG2 cell line (in words) [1] | total cholesterol, LDL-cholesterol, and triglyceride levels (in words) (Syrian Golden Hamster) | Glucose, percent change in parentheses (Syrian Golden Hamster) [%] | HDL cholesterol, percent change in parentheses (Syrian Golden Hamster) | LDL cholesterol, percent change in parentheses (Syrian Golden Hamster) [%] | Total cholesterol, percent change in parentheses (Syrian Golden Hamster) [%] | Trigly-ceride, percent change in parentheses (Syrian Golden Hamster) [%] | Glucose (Syrian Golden Hamster) [mg/dL] | HDL cholesterol (Syrian Golden Hamster) [mg/dL] | LDL cholesterol (Syrian Golden Hamster) [mg/dL] | Total cholesterol (Syrian Golden Hamster) [mg/dL] | Trigly-ceride (Syrian Golden Hamster) [mg/dL] | LD50 at 336 h ([2]; female) [mg/kg] | LD50 at 336 h ([2]; male) [mg/kg] | general symptoms, weight change and lethal case over two weeks (SD rats) | IC50 (sterol 14-reductase; dissolved in DMSO, read-out: concentration of active ingredient in the assay at which 50% of inhibitory effect was observed (sterol 14-reductase)) [µM] | safety of rats at single oral dose (SD rats; dose of 700 mg/kg, oral, SD rats) |
| --- | --- | --- | --- | --- | --- | --- | --- | --- | --- | --- | --- | --- | --- | --- | --- | --- | --- | --- |
| CCC(=O)CC1c2c(ccc(OC)c2OC)C(CC)=C2c3cc(OC)c(OC)cc3CCN21 (centres unmarked) [Compound No. 38, 8-(butan-2-one-1-yl)-13-ethyldihydropalmatine] | ≤ 1 | markedly inhibited | – | – | – | – | – | – | – | – | – | – | – | – | – | – | – | – |
| CCC1=C2c3cc(OC)c(OC)cc3CCN2Cc2c1ccc(OC)c2OC [Compound No. 46, 13-Ethyldihydropalmatine] | ≤ 1 | markedly inhibited | markedly decreased | -12.7 | -6.8% | -50.7 | -34.6 | -35.6 | 158.8 ± 16 | 49.2 ± 2.9 | 20.8 ± 2.3 | 82.4 ± 5.4 | 85.2 ± 11.0 | > 3000 | > 3000 | general symptoms and the body weight change of the animals were normal and the lethal case was not observed | – | – |
| CCOc1cc2c(cc1OCC)-c1c(CC)c3ccc(OCC)c(OCC)c3c[n+]1CC2 [Compound No. 5, 2,3,9,10-Tetraethoxy-13-ethylberberine] | ≤ 1 | markedly inhibited | markedly decreased | -12.4 | -3.2% | -41.2 | -23.5 | -28.5 | 160.2 ± 20.9 | 51.1 ± 3.0 | 24.9 ± 3.0 | 97.0 ± 5.6 | 94.7 ± 11.5 | > 5000 | > 5000 | general symptoms and the body weight change of the animals were normal and the lethal case was not observed | – | – |
| CCC1=C2c3cc(OC)c(OC)cc3CCN2C(CC(C)=O)c2c1ccc(OC)c2OC (centres unmarked) [Compound No. 37, 8-Acetonyl-13-ethyldihydropalmatine] | ≤ 1 | markedly inhibited | markedly decreased | -23.0 | +2.0% | -52.1 | -33.5 | -48.1 | 140.4 ± 15 | 54.2 ± 3.0 | 20.2 ± 2.0 | 83.8 ± 5.6 | 68.8 ± 11.5 | > 2000 | > 2500 | general symptoms and the body weight change of the animals were normal and the lethal case was not observed | – | – |
| CCc1c2[n+](cc3c(OC)c(OC)ccc13)CCc1cc3c(cc1-2)OCO3 [Compound No. 6, 13-Ethylberberine] | ≤ 1 | markedly inhibited | – | – | – | – | – | – | – | – | – | – | – | – | – | – | – | – |
| CCOc1cc2c(cc1OCC)C1=C(CC)c3ccc(OCC)c(OCC)c3CN1CC2 [Compound No. 47, 13-Ethyl-2,3,9,10-tetraethoxydihydroprotoberberine] | ≤ 1 | markedly inhibited | – | – | – | – | – | – | – | – | – | – | – | – | – | – | – | – |
| CCc1c2[n+](cc3c(OC)c(OC)ccc13)CCc1cc(OC)c(OC)cc1-2 [Compound No. 8, 13-Ethylpalmatine] | ≤ 1 | markedly inhibited | markedly decreased | -10.9 | -1.8% | -42.0 | -25.4 | -31.7 | 162.2 ± 11.3 | 47.5 ± 3.0 | 24.5 ± 1.8 | 94.0 ± 6.6 | 90.4 ± 8.9 | > 760 | > 925 | – | 100 to 3000 | safe |

— US6255317A, “Cholesterol biosynthesis inhibitors” (Hanwha Chemical Corporation, priority 1998, dated 2001)
